Read-outs that look alike come from different tables or passages of the source.
What was measured:
[1] = test system: NK Falkone corn seeds; experiment: Corn seed germination, cold stress (15° C.); format: in vivo; details: for T50 (% vs control): control T50 = 110 hours; for Slope compared with closest prior art compound P2 / T50 compared with closest prior art compound P2: at equivalent rates, vs P2
Protocol: The effect of compounds of Formula (II-1 and III-1) on the germination of NK Falkone corn seeds under salt and cold stress was evaluated as follows.
(§1) NK Falkone corn seeds (harvested in 2015) were sorted by size using a sieve to keep away round seeds.
(§2) The corn seeds were placed in 24 well plates (each plate was considered as one experimental unit or replicate). Germination was initiated by the addition of 200 μl of distilled water containing 0.5% DMSO per well. 8 replicates (i.e. 8 plates) were used for each treatment characterization. Plates were sealed using seal foil (Polyolefin Art. Nr. 900320) from HJ-BIOANALYTIK. All plates were placed in two carrousels in a climatic chamber at 15° C. The experiment was laid out in a completely randomized design in climatic chamber with 60% Relative Humidity.
(§3) Germination was followed over time by taking photographs at different time points. Image analysis was performed automatically with a macro which was developed using the Image J software. A dynamic analysis of germination was carried out by fitting a logistic curve. Three parameters were calculated from the logistic curve: the T50; the slope and the plateau. All three parameters have a high agronomical relevance and are key requirements to ensure a good early crop-establishment. The T50 and slope for a selection of compounds are outlined in Table 2 below. All the values are expressed as percentages compared to an untreated control. All the three parameters are calculated considering 8 replicates and the kinetic parameters are separately determined for each germination curve. Data in bold indicate germination enhancing statistically significant differences between treated seeds and untreated control (p<0.05). T50 corresponds to the time needed for half of the seed population to germinate. Higher negative %-values indicate faster germination. Slope indicates how synchronous the germination of the seed population is. Positive values indicate steeper curve. The steeper the curve, the better and more uniform the germination is.

[2] = test system: NK Falkone corn seeds; experiment: Corn seed germination, salt (NaCl, 100 mM) and cold stresses (15° C.); format: in vivo; details: cold 15° C. and salt 100 mM NaCl
Protocol: as §1, §2, §3
(§4) The effect of compounds of Formula (III-1 and P1) on the germination of NK Falkone corn seeds under salt and cold stress was evaluated as follows.
The experimental protocol was the same as in Example B1, except that germination was initiated by the addition of 200 μl of distilled water containing 0.5% DMSO and 100 mM NaCl per well.

[3] = test system: NK Falkone corn seeds; experiment: Corn seed germination, salt (NaCl, 100 mM) stress and optimal temperature (23° C.); format: in vivo; details: salt (NaCl) stress
Protocol: as §1
The corn seeds were placed in 24 well plates (each plate was considered as one experimental unit or replicate). […] 8 replicates (i.e. 8 plates) were used for each treatment characterization. Plates were sealed using seal foil (Polyolefin Art. Nr. 900320) from HJ-BIOANALYTIK. All plates were placed in two carrousels in a climatic chamber at 15° C. The experiment was laid out in a completely randomized design in climatic chamber with 60% Relative Humidity.
as §3
The experimental protocol was the same as in Example B1, except that the plates were placed in a climatic chamber at 23° C.

[4] = test system: NK Falkone corn seeds; experiment: Corn seed germination, osmotic stress (PEG 2%) and cold stress (15° C.); format: in vivo; details: osmotic (PEG 2%) and cold 15° C.
Protocol: as §1, §2, §3, §4
The experimental protocol was the same as in Example B1, except that germination was initiated by the addition of 200 μl of distilled water containing 0.5% DMSO and 2% PEG per well.

[5] = Hydrolytic stability; format: physicochemical; details: 40° C.; for half-life: aqueous buffer/acetonitrile solution, pH 9, pH 9, buffer/acetonitrile
Protocol: Prior to conducting the individual hydrolytic stability assays, stock solutions containing 1000 ppm of each test compound (i.e. compounds III-1 and P1) were prepared in acetonitrile.
The reagents used in the assays were prepared as follows. A 20 mM buffer solution was prepared from a stock solution of 20 mM mixed acetate, borate and phosphate buffer and the pH adjusted to 7 or 9 as required.
Test solutions were prepared in LC vials for each test compound in the following manner: Hydrolytic Stability: Buffer (750 μL)+acetonitrile (250 μL)+compound stock solution (2 to 40 μL).
The buffers were initially dispensed into separate glass LC vials, placed into an autosampler complete with thermostat set at 40° C. and allowed to equilibrate for 30 minutes prior to starting the individual assays.
Analysis was carried out on Waters LCMS systems under reverse phase conditions using 10 cm C18 columns and acetonitrile (HPLC grade) acidified water (0.2% formic acid) mobile phase at a flow rate of 1 ml min-1. Peak detection was at the optimum wavelength (230-250 nm) and peak areas were used for quantification
Reactions were initiated by addition of the compound solution and monitored through a series of repeat injections made directly from the vial into the HPLC system at regular time intervals. Initial and subsequent measurements of peak area attributable to the test compound were used to fit exponential half-lives and calculate first-order rate constants.
Consequently, the percentage of compound remaining was recorded at the last assessment time.

CC1=C[C@H](O/C=C2/C(=O)O[C@@H]3Cc4ccccc4[C@H]23)N(c2cc(C(F)(F)F)cc(C(F)(F)F)c2)C1=O [II-1a]
Slope (% vs control) ([1]; Rate 10 μM): 18.70 % vs control
T50 (% vs control) ([1]; Rate 10 μM): −2.70 % vs control
Slope (% vs control) ([1]; Rate 50 μM): 68.50 % vs control
T50 (% vs control) ([1]; Rate 50 μM): −5.30 % vs control
Slope (% vs control) ([1]; Rate 250 μM): 37.00 % vs control
T50 (% vs control) ([1]; Rate 250 μM): −3.20 % vs control
Slope compared with closest prior art compound P2 [1]: higher slope
T50 compared with closest prior art compound P2 [1]: lower T50

CC1=C[C@@H](O/C=C2/C(=O)O[C@@H]3Cc4ccccc4[C@H]23)N(c2cc(C(F)(F)F)cc(C(F)(F)F)c2)C1=O [II-1b]
Slope (% vs control) ([1]; Rate 10 μM): 19.20 % vs control
T50 (% vs control) ([1]; Rate 10 μM): −2.50 % vs control
Slope (% vs control) ([1]; Rate 50 μM): 41.40 % vs control
T50 (% vs control) ([1]; Rate 50 μM): −5.10 % vs control
Slope (% vs control) ([1]; Rate 250 μM): 62.40 % vs control
T50 (% vs control) ([1]; Rate 250 μM): −5.90 % vs control
Slope compared with closest prior art compound P2 [1]: higher slope
T50 compared with closest prior art compound P2 [1]: lower T50

CC1=CC(O/C=C2/C(=O)NC3c4ccccc4CC23)N(c2cc(C(F)(F)F)cc(C(F)(F)F)c2)C1=O (stereo not shown) [Compound P1, reference compound]
Slope (% vs control) ([1]; Rate 0.4 μM): 18.4 % vs control
T50 (% vs control) ([1]; Rate 0.4 μM): −2.2 % vs control
Slope (% vs control) ([1]; Rate 2 μM): 7.36 % vs control
T50 (% vs control) ([1]; Rate 2 μM): −1.4 % vs control
Slope (% vs control) ([1]; Rate 10 μM): 63.91 % vs control
T50 (% vs control) ([1]; Rate 10 μM): −8.95 % vs control
Slope (% vs control) ([1]; Rate 50 μM): 144.52 % vs control
T50 (% vs control) ([1]; Rate 50 μM): −11.7 % vs control
Slope (% vs control) ([2]; Rate 0.4 μM): 14.2 % vs control
T50 (% vs control) ([2]; Rate 0.4 μM): 0.5 % vs control
Slope (% vs control) ([2]; Rate 2 μM): 11.7 % vs control
T50 (% vs control) ([2]; Rate 2 μM): −0.3 % vs control
Slope (% vs control) ([2]; Rate 10 μM): 83.9 % vs control
T50 (% vs control) ([2]; Rate 10 μM): −10.7 % vs control
Slope (% vs control) ([2]; Rate 50 μM): 61.2 % vs control
T50 (% vs control) ([2]; Rate 50 μM): −5.1 % vs control
Slope (% vs control) ([3]; Rate 0.4 μM): 4.1 % vs control
T50 (% vs control) ([3]; Rate 0.4 μM): −0.4 % vs control
Slope (% vs control) ([3]; Rate 2 μM): 2.8 % vs control
T50 (% vs control) ([3]; Rate 2 μM): 3.3 % vs control
Slope (% vs control) ([3]; Rate 10 μM): 70.8 % vs control
T50 (% vs control) ([3]; Rate 10 μM): −10.2 % vs control
Slope (% vs control) ([3]; Rate 50 μM): 111.4 % vs control
T50 (% vs control) ([3]; Rate 50 μM): −15.2 % vs control
Slope (% vs control) ([4]; Rate 0.4 μM): 2.7 % vs control
T50 (% vs control) ([4]; Rate 0.4 μM): −0.8 % vs control
Slope (% vs control) ([4]; Rate 2 μM): 3.2 % vs control
T50 (% vs control) ([4]; Rate 2 μM): −0.8 % vs control
Slope (% vs control) ([4]; Rate 10 μM): 20.9 % vs control
T50 (% vs control) ([4]; Rate 10 μM): −2.8 % vs control
Slope (% vs control) ([4]; Rate 50 μM): 1.3 % vs control
T50 (% vs control) ([4]; Rate 50 μM): −4.3 % vs control
half-life ([5]; less polar isomer, read-out: Hydrolytic stability pH9 (t½), less polar isomer (converted)): 59 h
half-life ([5]; more polar isomer, read-out: Hydrolytic stability pH9 (t½), more polar isomer): > 59 h
% remaining, less polar isomer ([5]; pH 9, at 17.3 hours, less polar isomer): 85.5% remaining at 17.3 hours
% remaining, more polar isomer ([5]; pH 9, at 17.3 hours, more polar isomer): 97.9% remaining at 17.3 hours

CC1=CC(O/C=C2/C(=O)OC3c4ccccc4CC23)N(c2cc(C(F)(F)F)cc(C(F)(F)F)c2)C1=O (stereo not shown) [Compound P2, reference compound]
Slope (% vs control) ([1]; Rate 2 μM): −19.5 % vs control
T50 (% vs control) ([1]; Rate 2 μM): −0.8 % vs control
Slope (% vs control) ([1]; Rate 10 μM): −13.4 % vs control
T50 (% vs control) ([1]; Rate 10 μM): −2.0 % vs control
Slope (% vs control) ([1]; Rate 50 μM): −19.7 % vs control
T50 (% vs control) ([1]; Rate 50 μM): −0.9 % vs control

Reference: patent US11039613B2, “Germination promoters” (SYNGENTA PARTICIPATIONS AG, priority 2017, dated 2021)
